# From patent US11535579B2, “Hydrofluoroolefin ethers, compositions, apparatuses and methods for using same” (3M INNOVATIVE PROPERTIES COMPANY, priority 2017, dated 2022)
# Tests used:
# [1] = Thermal stability: stirred 24 h with or without adsorbent, purity by GC-FID; assay type: physicochemical
# Experimental: The samples were stirred for 24 h at the temperatures indicated in Table 4 and then analyzed for purity by GC-FID.
# [2] = Kinematic viscosity (AVS 350 Viscosity Timer, glass viscometer); assay type: physicochemical
# Experimental: Kinematic viscosity of PE-1 was measured using a Viscosity Timer available under the trade designation “AVS 350” from SI Analytics, College Station, Tex., USA. For temperatures below 0° C., a temperature control bath available from Lawler Manufacturing Corporation, Edison, N.J., USA was used. The viscometer measurements stand and glass viscometer were immersed in a temperature-controlled liquid bath filled with NOVEC 7500. The Lawler temperature bath was fitted with a copper tubing coil for liquid nitrogen cooling with fine temperature control provided by the bath's electronic temperature control heater. The fluid was mechanically stirred to provide uniform temperature in the bath. The bath controls temperature within 0.1° C., measured by the built-in RTD temperature sensor. The sample liquid was added to the viscometer between the two fill lines etched on the viscometer. The AVS 350 automatically pumped the sample fluid above the upper timing mark then released the fluid followed by measurement of efflux times between the upper and lower timing marks. The fluid meniscus was detected by optical sensors as it passed each timing mark. The sample was drawn up and measured repeatedly, averaging multiple measurements.
# The glass viscometers were calibrated using certified kinematic viscosity standard fluids available from Cannon Instrument Company, State College, Pa., USA to obtain a calibration constant (centistokes per second) for each viscometer.
# The measured kinematic viscosity (centistokes) which is the average efflux time (seconds)×constant (centistokes/second) is presented in Table 3. The data summarized in Table 3 indicates a favorable low temperature liquid range, which renders these materials useful in heat transfer applications.
structure (smiles),measurement,setting,value
"FC(F)(F)C(F)(F)C(F)(F)OC/C=C/COC(F)(F)C(F)(F)C(F)(F)F [PE-1, (E)-1,4-bis(perfluoropropoxy)but-2-ene]",Purity (thermal stability),"[1]; 4 Angstrom Molecular Sieves 100 mg, 60 °C",91.9%
same,Purity (thermal stability),"[1]; Activated Carbon 100 mg, 60 °C",91.8%
same,Purity (thermal stability),"[1]; Basic Alumina 100 mg, 60 °C",92.0%
same,Purity (thermal stability),"[1]; K2CO3 100 mg, 60 °C",91.6%
same,Purity (thermal stability),"[1]; No Adsorbent, 25 °C",91.7%
same,Purity (thermal stability),"[1]; No Adsorbent, 60 °C",91.7%
same,Purity (thermal stability),"[1]; Silica Gel 100 mg, 60 °C",91.7%
same,Kinematic Viscosity,[2]; 0.0 °C,3.16 cSt
same,Kinematic Viscosity,[2]; −10.0 °C,4.28 cSt
same,Kinematic Viscosity,[2]; −30.0 °C,10.24 cSt
same,Kinematic Viscosity,[2]; −40.0 °C,17.44 cSt
same,Kinematic Viscosity,[2]; −50.0 °C,28.23 cSt
same,Kinematic Viscosity,[2]; −60.0 °C,59.59 cSt
